Measurements as given in US20180339963A1, “ANTICONVULSANT CARBAMATE DERIVATIVES” (Yissum Research Development Company of the Hebrew …, priority 2017, published 2018).
Read-outs that look alike come from different tables or passages of the source. Marks after values point to notes of the source that are not given here.

Columns and labels:
[1] = in vivo; settings: male, CF no. 1 albino, mouse, ip
[2] = test system: pentylenetetrazol-induced seizure (scMet); assay: Subcutaneous metrazol seizure test (scMet) in mice; settings: Mus musculus, ip, read-out: scMet-ED50
[3] = biological target: T1, hCA VII (Homo sapiens, UniProt P43166); assay: Stopped flow CO2 hydrase assay, hCA VII; type: biochemical; settings: mean from 3 assays, read-out: K1, hCA VII
T1 construct: made in house
Protocol: (§1) An Applied Photophysics stopped-flow instrument has been used for assaying the CA catalysed CO2 hydration activity. Phenol red (at a concentration of 0.2 mM) has been used as indicator, working at the absorbance maximum of 557 nm, with 20 mM Hepes (pH 7.5) as buffer, and 20 mM Na2SO4 (for maintaining constant the ionic strength), following the initial rates of the CA-catalyzed CO2 hydration reaction for a period of 10-100 s. The CO2 concentrations ranged from 1.7 to 17 mM for the determination of the kinetic parameters and inhibition constants. […] The uncatalyzed rates were determined in the same manner and subtracted from the total observed rates. Stock solutions of inhibitor (0.1 mM) were prepared in distilled-deionized water and dilutions up to 0.01 nM were done thereafter with the assay buffer. […] The inhibition constants were obtained by non-linear least-squares methods using PRISM 3 and the Cheng-Prusoff equation, as reported earlier and represent the mean from at least three different determinations. All CA isofoms were recombinant ones obtained in-house.

[4] = test system: maximal electroshock seizure (MES); assay: Maximal electroshock seizure (MES) test in mice; settings: for responders at 30 mg/kg / responders at 100 mg/kg / responders at 300 mg/kg / ED50: Mus musculus, ip; for responders at 30 mg/kg / responders at 100 mg/kg / responders at 300 mg/kg: read-out: MES, number of mice protected/number of mice tested; for ED50: read-out: MES-ED50, mice, i.p.
[5] = test system: pentylenetetrazol-induced seizure (scMet); assay: Subcutaneous metrazol seizure test (scMet) in rats; settings: rats, p.o.
[6] = biological target: T2, hCA IV (Homo sapiens, UniProt P22748); assay: Stopped flow CO2 hydrase assay, hCA IV; type: biochemical; settings: mean from 3 assays; for Ki: read-out: K1, hCA IV
T2 construct: made in house
Protocol: as §1

[7] = test system: 6 Hz psychomotor seizure; assay: 6 Hz psychomotor seizure test in mice; settings: for responders at 30 mg/kg / responders at 100 mg/kg / responders at 300 mg/kg: read-out: 6 Hz, number of mice protected/number of mice tested
[8] = test system: SWV mice; assay: Teratogenicity in the SWV mouse model; type: in vivo; settings: for No. of fetuses with NTDs / No. of implants / No. of live fetuses / No. of resorptions / Fetal weight mean ± SD: day 8.5 of gestation; for Fetal weight mean ± SD: in g (unit assumed); for No. of live fetuses, figure in parentheses / No. of resorptions, figure in parentheses: share of implants; for No. of fetuses with NTDs, figure in parentheses: share of live fetuses
Protocol: The teratogenic properties of the newly designed compounds (1-10) were evaluated in the highly inbred SWV mice strain known for its high susceptibility to VPA-induced neural tube defects (NTDs). Two month old nulligravid females, were mated overnight with males and examined for the presence of vaginal plugs the following morning, and the onset of gestation was considered to be 10 p.m. of the previous night, the midpoint of the dark cycle. At day 8.5 of gestation, each dam received a single i.p. injection of the test compounds in an equimolar dose of 0.9 or 1.8 mmol/kg and the control dams were injected with vehicle (25% water solution of Cremophore EL, Fluka Biochemica Germany). The volume of injection was 10 μL/g of body weight. […] At gestation day […], the dams were euthanized by carbon dioxide asphyxiation followed by cervical dislocation. After the opening the uterus, the location of all viable fetuses and resorption sites were recorded, and the fetuses were examined for the presence of exencephaly or other gross congenital abnormalities. The teratogenicity data (implantations, resorptions and NTDs) were evaluated for significant differences between the control and treated groups by analyzing the contingency table with Fisher's exact test. Statistical analysis was conducted using GraphPad InStat (version 3.06; GraphPad Software, San Diego, Calif., USA), and the results of all tests were considered to be statistically significant when the p-value was less than 0.05

[9] = biological target: T3, hCA II (Homo sapiens, UniProt P00918); assay: Stopped flow CO2 hydrase assay, hCA II; type: biochemical; settings: mean from 3 assays, read-out: K1, hCA II
T3 construct: made in house
Protocol: as §1

[10] = test system: maximal electroshock seizure (MES); assay: Maximal electroshock seizure (MES) test in rats; settings: Rattus norvegicus, po, read-out: MES-ED50, rats, p.o.
[11] = biological target: T4, hCA I (Homo sapiens, UniProt P00915); assay: Stopped flow CO2 hydrase assay, hCA I; type: biochemical; settings: mean from 3 assays, read-out: K1, hCAI
T4 construct: made in house
Protocol: as §1

[12] = test system: mice; assay: Neurotoxicity (minimal motor impairment, rotarod) in mice; settings: mice i.p.

T2 sequence (P22748 19-284): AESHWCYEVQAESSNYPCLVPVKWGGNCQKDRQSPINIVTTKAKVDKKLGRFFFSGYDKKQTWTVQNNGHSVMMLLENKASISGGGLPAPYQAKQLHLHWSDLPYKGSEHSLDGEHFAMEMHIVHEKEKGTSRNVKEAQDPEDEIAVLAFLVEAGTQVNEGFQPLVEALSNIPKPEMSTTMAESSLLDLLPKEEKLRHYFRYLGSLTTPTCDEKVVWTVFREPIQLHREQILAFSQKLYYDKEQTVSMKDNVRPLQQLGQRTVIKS
T4 sequence (P00915 whole entry): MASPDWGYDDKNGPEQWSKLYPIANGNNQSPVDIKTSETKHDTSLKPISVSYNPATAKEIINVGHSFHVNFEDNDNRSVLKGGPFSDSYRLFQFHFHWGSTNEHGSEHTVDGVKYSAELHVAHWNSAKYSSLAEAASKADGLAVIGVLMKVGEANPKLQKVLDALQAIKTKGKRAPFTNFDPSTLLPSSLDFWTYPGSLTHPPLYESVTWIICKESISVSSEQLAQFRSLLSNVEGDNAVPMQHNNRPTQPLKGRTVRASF
T1 sequence (P43166 whole entry): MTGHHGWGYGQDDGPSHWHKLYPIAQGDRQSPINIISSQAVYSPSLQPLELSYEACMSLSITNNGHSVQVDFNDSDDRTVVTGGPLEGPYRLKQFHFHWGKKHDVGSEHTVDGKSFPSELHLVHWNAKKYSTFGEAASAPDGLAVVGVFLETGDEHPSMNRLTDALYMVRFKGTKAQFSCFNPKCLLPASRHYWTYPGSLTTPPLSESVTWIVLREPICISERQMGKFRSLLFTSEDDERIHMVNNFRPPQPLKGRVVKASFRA

CCCC(COC(=O)Nc1ccc(S(N)(=O)=O)cc1)C(C)CC (centres unmarked) [Compound 1, 3-methyl-2-propylpentyl (4-sulfamoylphenyl)carbamate] gave a TD50 [1] greater than 500 mg/kg, an ED50 [2] greater than 300 mg/kg and a Ki [3] of 865 nM. For the same compound, the melting point was 151 to 152 °C, the responders at 30 mg/kg ([4]; 0.5 h) was 0% and the responders at 100 mg/kg ([4]; 0.5 h) was 0%. For the same compound, the responders at 300 mg/kg ([4]; 0.5 h) was 0%, the responders at 30 mg/kg ([4]; 2 h) was 0% and the responders at 100 mg/kg ([4]; 2 h) was 75%. It also gave a responders at 300 mg/kg ([4]; 2 h) of 100%, an ED50 [4] of 136 mg/kg and an MES-ED50 ([4]; mice, i.p.) of 236 mg/kg. For the same compound, the “scMet ED50” value [5] was “inactive”, the Ki [6] was greater than 10000 nM and the responders at 30 mg/kg ([7]; Mus musculus, ip, 0.5 h) was 25%. It also gave a responders at 100 mg/kg ([7]; Mus musculus, ip, 0.5 h) of 25%, a responders at 300 mg/kg ([7]; Mus musculus, ip, 0.5 h) of 0% and a responders at 30 mg/kg ([7]; Mus musculus, ip, 2 h) of 0%. It also gave a responders at 100 mg/kg ([7]; Mus musculus, ip, 2 h) of 25%, a responders at 300 mg/kg ([7]; Mus musculus, ip, 2 h) of 75% and an ED50 ([7]; Mus musculus, ip, read-out: 6 Hz-ED50, mice, i.p., 32 mA) of 75 mg/kg. The “6 Hz-ED50” value ([7]; mice, i.p., 32 mA) was 74 mg/kg, the “induction of neural tube defects relative to anticonvulsant effective dose (in words)” value [8] was “induced neural tube defects only at doses markedly exceeding their effective dose” and the “No. of fetuses with NTDs” value ([8]; single i.p. 0.9 mmol/kg) was 1. For the same compound, the No. of implants ([8]; single i.p. 0.9 mmol/kg) was 126, the “No. of live fetuses” value ([8]; single i.p. 0.9 mmol/kg) was 94 and the No. of resorptions ([8]; single i.p. 0.9 mmol/kg) was 32. For the same compound, the “Fetal weight mean ± SD” value ([8]; single i.p. 0.9 mmol/kg) was 0.88 ± 0.03, the No. of live fetuses, figure in parentheses ([8]; single i.p. 0.9 mmol/kg) was 74.6% and the No. of resorptions, figure in parentheses ([8]; single i.p. 0.9 mmol/kg) was 25.4%. The “No. of fetuses with NTDs, figure in parentheses” value ([8]; single i.p. 0.9 mmol/kg) was “(1.1)”, the “No. of fetuses with NTDs” value ([8]; single i.p. 1.8 mmol/kg) was 7 and the No. of implants ([8]; single i.p. 1.8 mmol/kg) was 109. The “No. of live fetuses” value ([8]; single i.p. 1.8 mmol/kg) was 50, the No. of resorptions ([8]; single i.p. 1.8 mmol/kg) was 59 and the “Fetal weight mean ± SD” value ([8]; single i.p. 1.8 mmol/kg) was 0.88 ± 0.06. The No. of live fetuses, figure in parentheses ([8]; single i.p. 1.8 mmol/kg) was 45.9%, the No. of resorptions, figure in parentheses ([8]; single i.p. 1.8 mmol/kg) was 54.1% and the “No. of fetuses with NTDs, figure in parentheses” value ([8]; single i.p. 1.8 mmol/kg) was “(14.0)*”. For the same compound, the Ki [9] was 5.7 nM, the ED50 [10] was 36 mg/kg and the Ki [11] was 89 nM. For the same compound, the “Tox (motor impairment or sedation), number of animals affected/number of animals tested” value ([12]; 30 mg/kg, 0.5 h) was 0/8, the “Tox (motor impairment or sedation), number of animals affected/number of animals tested” value ([12]; 30 mg/kg, 2.0 h) was 0/8 and the “Tox (motor impairment or sedation), number of animals affected/number of animals tested” value ([12]; 100 mg/kg, 0.5 h) was 0/8. The “Tox (motor impairment or sedation), number of animals affected/number of animals tested” value ([12]; 100 mg/kg, 2.0 h) was 0/8, the “Tox (motor impairment or sedation), number of animals affected/number of animals tested” value ([12]; 300 mg/kg, 0.5 h) was 0/8 and the “Tox (motor impairment or sedation), number of animals affected/number of animals tested” value ([12]; 300 mg/kg, 2.0 h) was 0/8.
In the case of CCC(C)OC(=O)Nc1ccc(S(N)(=O)=O)cc1 (centres unmarked) [Compound 11, sec-butyl(4-sulfamoylphenyl)carbamate], the melting point is reported as 190 to 191 °C, the ED50 [4] is reported as 75 mg/kg and the ED50 [10] is reported as 25 mg/kg.
With NS(=O)(=O)c1ccc(NC(=O)OCCc2ccccc2)cc1 [Compound 5, phenethyl (4-sulfamoylphenyl)carbamate] the Ki [3] was 24.5 nM, the melting point was 212 to 213 °C and the responders at 30 mg/kg ([4]; 0.5 h) was 0%. The responders at 100 mg/kg ([4]; 0.5 h) was 0%, the responders at 300 mg/kg ([4]; 0.5 h) was 0% and the responders at 30 mg/kg ([4]; 2 h) was 25%. For the same compound, the responders at 100 mg/kg ([4]; 2 h) was 25%, the responders at 300 mg/kg ([4]; 2 h) was 50% and the “K1, hCA IV” value [6] was “medium potency inhibitors”. It also gave a Ki [6] of 303 nM, a responders at 30 mg/kg ([7]; Mus musculus, ip, 0.5 h) of 0% and a responders at 100 mg/kg ([7]; Mus musculus, ip, 0.5 h) of 0%. For the same compound, the responders at 300 mg/kg ([7]; Mus musculus, ip, 0.5 h) was 0%, the responders at 30 mg/kg ([7]; Mus musculus, ip, 2 h) was 0% and the responders at 100 mg/kg ([7]; Mus musculus, ip, 2 h) was 0%. For the same compound, the responders at 300 mg/kg ([7]; Mus musculus, ip, 2 h) was 0%, the Ki [9] was 0.6 nM and the Ki [11] was 5.9 nM. The “Tox (motor impairment or sedation), number of animals affected/number of animals tested” value ([12]; 30 mg/kg, 0.5 h) was 0/8, the “Tox (motor impairment or sedation), number of animals affected/number of animals tested” value ([12]; 30 mg/kg, 2.0 h) was 0/8 and the “Tox (motor impairment or sedation), number of animals affected/number of animals tested” value ([12]; 100 mg/kg, 0.5 h) was 0/8. The “Tox (motor impairment or sedation), number of animals affected/number of animals tested” value ([12]; 100 mg/kg, 2.0 h) was 0/8, the “Tox (motor impairment or sedation), number of animals affected/number of animals tested” value ([12]; 300 mg/kg, 0.5 h) was 0/8 and the “Tox (motor impairment or sedation), number of animals affected/number of animals tested” value ([12]; 300 mg/kg, 2.0 h) was 0/8.
With CCCCC(CC)COC(=O)Nc1ccc(S(N)(=O)=O)cc1 (centres unmarked) [Compound 2, 2-ethylhexyl (4-sulfamoylphenyl)carbamate] the Ki [3] was greater than 10000 nM, the melting point was 192 to 195 °C and the responders at 30 mg/kg ([4]; 0.5 h) was 0%. For the same compound, the responders at 100 mg/kg ([4]; 0.5 h) was 25%, the responders at 300 mg/kg ([4]; 0.5 h) was 25% and the responders at 30 mg/kg ([4]; 2 h) was 0%. It also gave a responders at 100 mg/kg ([4]; 2 h) of 0%, a responders at 300 mg/kg ([4]; 2 h) of 25% and a Ki [6] greater than 10000 nM. It also gave a responders at 30 mg/kg ([7]; Mus musculus, ip, 0.5 h) of 0%, a responders at 100 mg/kg ([7]; Mus musculus, ip, 0.5 h) of 75% and a responders at 300 mg/kg ([7]; Mus musculus, ip, 0.5 h) of 50%. It also gave a responders at 30 mg/kg ([7]; Mus musculus, ip, 2 h) of 0%, a responders at 100 mg/kg ([7]; Mus musculus, ip, 2 h) of 0% and a responders at 300 mg/kg ([7]; Mus musculus, ip, 2 h) of 25%. For the same compound, the Ki [9] was 8.7 nM, the Ki [11] was 421 nM and the “Tox (motor impairment or sedation), number of animals affected/number of animals tested” value ([12]; 30 mg/kg, 0.5 h) was 0/8. The “Tox (motor impairment or sedation), number of animals affected/number of animals tested” value ([12]; 30 mg/kg, 2.0 h) was 0/8, the “Tox (motor impairment or sedation), number of animals affected/number of animals tested” value ([12]; 100 mg/kg, 0.5 h) was 0/8 and the “Tox (motor impairment or sedation), number of animals affected/number of animals tested” value ([12]; 100 mg/kg, 2.0 h) was 0/8. For the same compound, the “Tox (motor impairment or sedation), number of animals affected/number of animals tested” value ([12]; 300 mg/kg, 0.5 h) was 0/8 and the “Tox (motor impairment or sedation), number of animals affected/number of animals tested” value ([12]; 300 mg/kg, 2.0 h) was 0/8.
